Literature values in patent publication US7875460B2, “Method for determining the effectiveness of stabilized chlorine dioxide in a mouth rinse” (priority 2007, dated 2011).

Tests used:
[1] = in vivo
bacteria = settings: exposures as short as 10 seconds

[O][Cl+][O-] [chlorine dioxide]
decrease in VSCs in expired mouth air [1]: remarkable decrease in VSCs | effects on haematology, blood biochemistry, or organ weights (Sprague-Dawley rats; 0, 2, 4, 6, 12 mg/kg/day (male) and 0, 2, 5, 8, 15 mg/kg/day (female) in drinking-water for 90 days): no toxicologically significant effects | target tissue identified: nasal cavity findings (Sprague-Dawley rats; drinking-water for 90 days): increased incidence of goblet cell hyperplasia, squamous metaplasia, and inflammatory responses | deaths (Sprague-Dawley rats; exposures as high as 11.5 mg/kg/day (male) and 14.9 mg/kg/day (female)): no deaths were reported | reduction in bacteria (bacteria): dramatic reduction in bacteria
